Source: ChEMBL document CHEMBL2203270, “POMA analyses as new efficient bioinformatics' platform to predict and optimise bioactivity of synthesized 3a,4-dihydro-3H-indeno[1,2-c]pyrazole-2-carboxamide/carbothioamide analogues” (Bioorg Med Chem Lett, 2012)
Values after ≈ are worked out from the molar mass of the structure shown. Active and inactive are the calls of the source. No cut-off for these calls is given here.

What was measured:
[1] = system: Human immunodeficiency virus 1; assay: Antiviral activity against HIV-1 3B infected in MT4 cells assessed as protection against virus-induced cytopathicity relative to control; type: functional; conditions: Human immunodeficiency virus 1, 3B
Mus musculus [2] = assay: Anticonvulsant activity in mouse assessed as protection against clonic seizure at 100 mg/kg, ip measured at 2 hr; type: functional, organism-based; design: dose 100 mg/kg
Mus musculus [3] = assay: Neurotoxicity in mouse assessed as minimal motor impairment at 100 mg/kg, ip measured at 4 hr by rotarod test; type: toxicity, organism-based; design: dose 100 mg/kg, route intraperitoneal; conditions: in vivo
[4] = Cytotoxicity against mock-infected human MT4 cells assessed as decrease in cell viability by MTT assay; type: cell-based
Mus musculus [5] = assay: Anticonvulsant activity in mouse assessed as protection against clonic seizure at 100 mg/kg, ip measured at 4 hr; type: functional, organism-based; design: dose 100 mg/kg
Mus musculus [6] = assay: Neurotoxicity in mouse assessed as minimal motor impairment at 100 mg/kg, ip measured at 0.25 hr by rotarod test; type: toxicity, organism-based; design: dose 100 mg/kg, route intraperitoneal; conditions: in vivo
[7] = system: Human immunodeficiency virus 2; assay: Antiviral activity against HIV-2 ROD infected in MT4 cells assessed as inhibition of virus-induced cytopathicity; type: functional, organism-based; conditions: Human immunodeficiency virus 2, ISOLATE ROD
Mus musculus [8] = assay: Neurotoxicity in mouse assessed as minimal motor impairment at 100 mg/kg, ip measured at 0.5 hr by rotarod test; type: toxicity, organism-based; design: dose 100 mg/kg, route intraperitoneal; conditions: in vivo
Mus musculus [9] = assay: Neurotoxicity in mouse assessed as minimal motor impairment at 100 mg/kg, ip measured at 1 hr by rotarod test; type: toxicity, organism-based; design: dose 100 mg/kg, route intraperitoneal; conditions: in vivo
[10] = system: Human immunodeficiency virus 2; assay: Antiviral activity against HIV-2 ROD infected in MT4 cells assessed as protection against virus-induced cytopathicity relative to control; type: functional; conditions: Human immunodeficiency virus 2, ISOLATE ROD
Mus musculus [11] = assay: Anticonvulsant activity in mouse assessed as protection against clonic seizure at 100 mg/kg, ip measured at 0.25 hr; type: functional
Mus musculus [12] = assay: Neurotoxicity in mouse assessed as minimal motor impairment at 100 mg/kg, ip measured at 2 hr by rotarod test; type: toxicity, organism-based; design: dose 100 mg/kg, route intraperitoneal; conditions: in vivo
[13] = system: Human immunodeficiency virus 1; assay: Antiviral activity against HIV-1 3B infected in MT4 cells assessed as inhibition of virus-induced cytopathicity; type: functional, organism-based; conditions: Human immunodeficiency virus 1, 3B
Mus musculus [14] = assay: Anticonvulsant activity in mouse assessed as protection against clonic seizure at 100 mg/kg, ip measured at 0.5 hr; type: functional
Mus musculus [15] = assay: Anticonvulsant activity in mouse assessed as protection against clonic seizure at 100 mg/kg, ip measured at 1 hr; type: functional
Candida albicans [16] = assay: Antimicrobial activity against Candida albicans NCIM 3471 by agar diffusion method; type: functional
Aspergillus niger [17] = assay: Antimicrobial activity against Aspergillus niger NCIM 1196 by agar diffusion method; type: functional
Staphylococcus aureus = assay: Antimicrobial activity against Staphylococcus aureus NCIM 2079 by broth dilution technique; type: functional
Escherichia coli = assay: Antimicrobial activity against Escherichia coli NCIM 5051 by broth dilution technique; type: functional
Aspergillus niger [18] = assay: Antimicrobial activity against Aspergillus niger NCIM 1196 by broth dilution technique; type: functional
Pseudomonas aeruginosa = assay: Antimicrobial activity against Pseudomonas aeruginosa ATCC 10145 by broth dilution technique; type: functional
Candida albicans [19] = assay: Antimicrobial activity against Candida albicans NCIM 3471 by broth dilution technique; type: functional
Bacillus subtilis = assay: Antimicrobial activity against Bacillus subtilis NCIM 2439 by broth dilution technique; type: functional

For `COc1cc2c(cc1OC)C1=NN(C(=O)Nc3ccc(F)c(Cl)c3)C(c3ccccc3Cl)C1C2` (configuration not stated), the Emax [1] was 5%, the Activity (Mus musculus [2]) was “inactive” and the Activity (Mus musculus [3]) was “Non-toxic”. For the same molecule, the CC50 [4] was 11.8 µM, the Activity (Mus musculus [5]) was “inactive” and the Activity (Mus musculus [6]) was “Non-toxic”. For the same molecule, the IC50 [7] was > 11.8 µM, the Activity (Mus musculus [8]) was “Non-toxic” and the Activity (Mus musculus [9]) was “Toxic”. For the same molecule, the Emax [10] was 1%, the Activity (Mus musculus [11]; route intraperitoneal) was 75% and the Activity (Mus musculus [12]) was “Non-toxic”. The IC50 [13] was > 11.8 µM, the Activity (Mus musculus [14]) was “inactive” and the Activity (Mus musculus [15]) was “inactive”.

`OC(Cn1cncn1)(Cn1cncn1)c1ccc(F)cc1F` [FLUCONAZOLE] showed an MFC (Candida albicans [16]) of 2 µg/mL (≈ 6.53 µM), an MIC (Candida albicans [16]) of 1 µg/mL (≈ 3.27 µM) and an MFC (Aspergillus niger [17]) of 2 µg/mL (≈ 6.53 µM). The MIC (Aspergillus niger [17]) was 2 µg/mL (≈ 6.53 µM).

For `COc1cc2c(cc1OC)C1=NN(C(N)=S)C(c3ccncc3)C1C2` (configuration not stated), the Emax [1] was 2%, the MBC (Staphylococcus aureus) was > 512 µg/mL and the MIC (Staphylococcus aureus) was 32 µg/mL (≈ 90.3 µM). For the same molecule, the CC50 [4] was 36.9 µM, the IC50 [7] was > 36.9 µM and the MBC (Escherichia coli) was > 512 µg/mL. The MIC (Escherichia coli) was 32 µg/mL (≈ 90.3 µM), the Emax [10] was 3% and the MFC (Aspergillus niger [18]) was > 512 µg/mL. The MIC (Aspergillus niger [18]) was 128 µg/mL (≈ 361 µM), the MBC (Pseudomonas aeruginosa) was > 512 µg/mL and the MIC (Pseudomonas aeruginosa) was 32 µg/mL (≈ 90.3 µM). The IC50 [13] was > 36.9 µM, the MFC (Candida albicans [19]) was > 512 µg/mL and the MIC (Candida albicans [19]) was 128 µg/mL (≈ 361 µM). The MBC (Bacillus subtilis) was > 512 µg/mL and the MIC (Bacillus subtilis) was 32 µg/mL (≈ 90.3 µM).

With `COc1cc2c(cc1OC)C1=NN(C(N)=O)C(c3ccccc3Cl)C1C2` (configuration not stated) the Emax [1] was 3%, the MBC (Staphylococcus aureus) was 256 µg/mL (≈ 688 µM) and the MIC (Staphylococcus aureus) was 16 µg/mL (≈ 43 µM). For the same molecule, the CC50 [4] was 6.47 µM, the IC50 [7] was > 6.47 µM and the MBC (Escherichia coli) was 256 µg/mL (≈ 688 µM). For the same molecule, the MIC (Escherichia coli) was 16 µg/mL (≈ 43 µM), the Emax [10] was 3% and the MFC (Aspergillus niger [18]) was > 512 µg/mL. It also gave an MIC (Aspergillus niger [18]) of 256 µg/mL (≈ 688 µM), an MBC (Pseudomonas aeruginosa) of 256 µg/mL (≈ 688 µM) and an MIC (Pseudomonas aeruginosa) of 16 µg/mL (≈ 43 µM). For the same molecule, the IC50 [13] was > 6.47 µM, the MFC (Candida albicans [19]) was > 512 µg/mL and the MIC (Candida albicans [19]) was 128 µg/mL (≈ 344 µM). The MBC (Bacillus subtilis) was 256 µg/mL (≈ 688 µM) and the MIC (Bacillus subtilis) was 16 µg/mL (≈ 43 µM).

`COc1cc2c(cc1OC)C1=NN(C(N)=O)C(c3ccc(F)cc3)C1C2` (configuration not stated) showed an Emax [1] of 3%, an MBC (Staphylococcus aureus) of 16 µg/mL (≈ 45 µM) and an MIC (Staphylococcus aureus) of 8 µg/mL (≈ 22.5 µM). The CC50 [4] was 151 µM, the IC50 [7] was > 151 µM and the MBC (Escherichia coli) was 16 µg/mL (≈ 45 µM). The MIC (Escherichia coli) was 8 µg/mL (≈ 22.5 µM), the Emax [10] was 9% and the MFC (Aspergillus niger [18]) was > 512 µg/mL. For the same molecule, the MIC (Aspergillus niger [18]) was 128 µg/mL (≈ 360 µM), the MBC (Pseudomonas aeruginosa) was 16 µg/mL (≈ 45 µM) and the MIC (Pseudomonas aeruginosa) was 8 µg/mL (≈ 22.5 µM). The IC50 [13] was > 151 µM, the MFC (Candida albicans [19]) was > 512 µg/mL and the MIC (Candida albicans [19]) was 128 µg/mL (≈ 360 µM). The MBC (Bacillus subtilis) was 16 µg/mL (≈ 45 µM) and the MIC (Bacillus subtilis) was 8 µg/mL (≈ 22.5 µM).

`COc1cc2c(cc1OC)C1=NN(C(N)=S)C(c3ccccc3Cl)C1C2` (configuration not stated) gave an Emax [1] of 0%, an MBC (Staphylococcus aureus) of 128 µg/mL (≈ 330 µM) and an MIC (Staphylococcus aureus) of 16 µg/mL (≈ 41.2 µM). For the same molecule, the CC50 [4] was 6.87 µM, the IC50 [7] was > 6.87 µM and the MBC (Escherichia coli) was 128 µg/mL (≈ 330 µM). The MIC (Escherichia coli) was 8 µg/mL (≈ 20.6 µM), the Emax [10] was 1% and the MFC (Aspergillus niger [18]) was > 512 µg/mL. For the same molecule, the MIC (Aspergillus niger [18]) was 128 µg/mL (≈ 330 µM), the MBC (Pseudomonas aeruginosa) was 256 µg/mL (≈ 660 µM) and the MIC (Pseudomonas aeruginosa) was 16 µg/mL (≈ 41.2 µM). The IC50 [13] was > 6.87 µM, the MFC (Candida albicans [19]) was > 512 µg/mL and the MIC (Candida albicans [19]) was 64 µg/mL (≈ 165 µM). For the same molecule, the MBC (Bacillus subtilis) was 128 µg/mL (≈ 330 µM) and the MIC (Bacillus subtilis) was 16 µg/mL (≈ 41.2 µM).

With `COc1cc2c(cc1OC)C1=NN(C(=O)Nc3ccc(Cl)cc3)C(c3ccccc3Cl)C1C2` (configuration not stated) the Emax [1] was 2%, the Activity (Mus musculus [2]) was “inactive” and the Activity (Mus musculus [3]) was “Non-toxic”. For the same molecule, the CC50 [4] was 22.9 µM, the Activity (Mus musculus [5]) was “inactive” and the Activity (Mus musculus [6]) was “Non-toxic”. The IC50 [7] was > 22.9 µM, the Activity (Mus musculus [8]) was “Non-toxic” and the Activity (Mus musculus [9]) was “Non-toxic”. The Emax [10] was 2%, the Activity (Mus musculus [11]) was “inactive” and the Activity (Mus musculus [12]) was “Non-toxic”. For the same molecule, the IC50 [13] was > 22.9 µM, the Activity (Mus musculus [14]; route intraperitoneal) was 75% and the Activity (Mus musculus [15]; route intraperitoneal) was 50%.

For `COc1cc2c(cc1OC)C1=NN(C(=O)Nc3ccc(Cl)cc3)C(c3ccc(F)cc3)C1C2` (configuration not stated), the Emax [1] was 2%, the Activity (Mus musculus [2]) was “inactive” and the Activity (Mus musculus [3]) was “Non-toxic”. The CC50 [4] was 25.8 µM, the Activity (Mus musculus [5]) was “inactive” and the Activity (Mus musculus [6]) was “Non-toxic”. The IC50 [7] was > 25.8 µM, the Activity (Mus musculus [8]) was “Non-toxic” and the Activity (Mus musculus [9]) was “Non-toxic”. The Emax [10] was 2%, the Activity (Mus musculus [11]; route intraperitoneal) was 100% and the Activity (Mus musculus [12]) was “Non-toxic”. The IC50 [13] was > 25.8 µM, the Activity (Mus musculus [14]; route intraperitoneal) was 100% and the Activity (Mus musculus [15]; route intraperitoneal) was 75%.
